The test deals with M1-polarized Mø (classically activated BMDMs). In words: Cell Titer Blue (resazurin-based) cell viability assay, classically activated (M1) BMDMs. Also on record: species or system mouse. Particulars: 1 h pre-treatment, then 100 ng/ml NRG4 and 100 ng/ml LPS. In general terms: The colour change of resazurin is a common sign of viable cells or microbes.

Procedure: (FIG. 8A) Classically activated (M1) or alternatively activated (M2) BMDMs were treated with NRG4 (100 ng/ml) for 48 hours and analyzed by resazurin-based cell titer assay to assess cell numbers compared to control. (FIG. 8B) Classically activated BMDMs pre-incubated for 30 minutes with or without 2 μg/ml ErbB4 neutralizing antibody (E4BA), and treated with or without NRG4 (100 ng/ml) for 48 hours, were stained for cleaved caspase-3. […] (FIG. 8C) Classically activated BMDMs treated with NRG4 (100 ng/ml) for 48 hours were stained for annexin V and propidium iodide (PI), and analyzed by flow cytometry to determine apoptotic cells. n=3-6 independent experiments for each panel. Error bars represent SEM. *, p<0.05; **, p<0.01.
(FIG. 9B) Classically activated BMDMs were pre-treated for 1 hour with metalloprotease inhibitor (GM6001, 10 γ-secretase inhibitor (DAPT, 10 or ADAM17 inhibitor (GW280264X, 3 μM) followed by 100 ng/ml NRG4 and 100 ng/ml LPS. Percent cell viability was analyzed by rezasurin-based cell titer assay. Error bars represent SEM. ***, p<0.001. (FIG. 9C) Immunofluorescence analysis of ErbB4 localization to the mitochondria of classically activated BMDMs treated with or without NRG4 (100 ng/ml) for 48 hours. Arrows point to representative cells with ErbB4/mitochondrial overlap. n=4 independent experiments.
IFNγ/LPS-treated Mø were exposed to NRG4 (100 ng/ml)+/−ErbB4 blocking antibody (E4BA; 2 μg/ml) for 48 h and counted by Cell Titer Blue assay (Promega). n=4. *, p<0.01.
For BMDMs, adherent cells were washed at 3 days and re-fed with M-CSF containing media until experimentation at day 7-8. For M1 polarization, cells were pre-treated with 100 U/ml IFNγ for 16 hours, then stimulated with 100 ng/ml LPS.
BMDMs were plated in 96 well plates at 40,000 cells per well. Cells were washed and plated in DMEM with 10% heat-inactivated FBS, 100 U/ml penicillin and streptomycin, and given 100 U/ml IFNγ overnight. […] Relative cell numbers were determined by Cell Titer Blue (resazurin-based assay) following manufacturer's instructions (Promega, G8081). […]

For `C[C@H](NC(=O)Cc1cc(F)cc(F)c1)C(=O)N[C@H](C(=O)OC(C)(C)C)c1ccccc1` [DAPT], the “Effect on NRG4-induced cell death (percent cell viability)” value (from here on “Effect … (percent cell viability)”) (inhibitor 10 μM) was “protected against the NRG4-induced cell death”.

With GW280264X, the “Effect … (percent cell viability)” value (inhibitor 3 μM) is “protected against the NRG4-induced cell death”.

As for `CNC(=O)[C@H](Cc1c[nH]c2ccccc12)NC(=O)[C@@H](CC(=O)NO)CC(C)C` [GM6001], the “Effect … (percent cell viability)” value (inhibitor 10 μM) is on record as “protected against the NRG4-induced cell death”.

The record behind these values is patent US11524055B2, “Methods for treating diseases mediated by ERBB4-positive pro-inflammatory macrophages” (Children's Hospital Los Angeles, priority 2015, dated 2022).
